# Source: ChEMBL document CHEMBL3885881, “DrugMatrix”
# Species on record: Rattus norvegicus
# Assay: DrugMatrix - Regimen: Daily Repeat
# Type: toxicity, organism-based, Sprague-Dawley
# Design: regimen Daily Repeat, gender Male, age 6-8 weeks
# Details: in vivo, po, route oral GAVAGE, vehicle 100 % SALINE; for ABSOLUTE BASOPHIL / ABSOLUTE EOSINOPHIL / ABSOLUTE LYMPHOCYTE / ABSOLUTE MONOCYTE / ABSOLUTE SEGMENTED NEUTROPHIL / BASOPHIL / EOSINOPHIL / ERYTHROCYTE COUNT / HEMATOCRIT / HEMOGLOBIN / LEUKOCYTE COUNT / LYMPHOCYTE / MEAN CORPUSCULAR HEMOGLOBIN / MEAN CORPUSCULAR HEMOGLOBIN CONCENTRATION / MONOCYTE / NEUTROPHIL / NUCLEATED RED BLOOD CELLS / PLATELET COUNT: tissue Blood; for ALANINE AMINOTRANSFERASE / ALBUMIN / ALKALINE PHOSPHATASE / ASPARTATE AMINOTRANSFERASE / BLOOD UREA NITROGEN / CARBON DIOXIDE / CHOLESTEROL / CREATINE PHOSPHOKINASE / CREATININE / GLUCOSE / LACTATE DEHYDROGENASE / LIPASE / POTASSIUM / SODIUM / TOTAL BILIRUBIN / TOTAL PROTEIN / URIC ACID: tissue Plasma
# [1] = 330 mg/kg, 120 h, dose level Low, time 5 day
# [2] = 980 mg/kg, 72 h, dose level High, time 3 day
# [3] = 980 mg/kg, 120 h, dose level High, time 5 day
compound,measurement,setting,value
Nc1nc2c(ncn2COCCO)c(=O)[nH]1 [ACYCLOVIR],ABSOLUTE BASOPHIL,[1],0 CELLS/uL
same,ABSOLUTE EOSINOPHIL,[1],23.33 CELLS/uL
same,ABSOLUTE LYMPHOCYTE,[1],6827.33 CELLS/uL
same,ABSOLUTE MONOCYTE,[1],23.33 CELLS/uL
same,ABSOLUTE SEGMENTED NEUTROPHIL,[1],459.33 CELLS/uL
same,BASOPHIL,[1],0%
same,EOSINOPHIL,[1],0.33%
same,ERYTHROCYTE COUNT,[1],5.77 x10E6/uL
same,HEMATOCRIT,[1],36%
same,HEMOGLOBIN,[1],13.93 G/DL
same,LEUKOCYTE COUNT,[1],7.33 x10E3/uL
same,LYMPHOCYTE,[1],92.67%
same,MEAN CORPUSCULAR HEMOGLOBIN,[1],24.17 pg
same,MEAN CORPUSCULAR HEMOGLOBIN CONCENTRATION,[1],38.7 G/DL
same,MONOCYTE,[1],0.33%
same,NEUTROPHIL,[1],6.67%
same,NUCLEATED RED BLOOD CELLS,[1],0 /100WBC
same,PLATELET COUNT,[1],980.67 x10E3/uL
same,ALANINE AMINOTRANSFERASE,[1],54 u/L
same,ALBUMIN,[1],4.1 G/DL
same,ALKALINE PHOSPHATASE,[1],310 u/L
same,ASPARTATE AMINOTRANSFERASE,[1],89.33 u/L
same,BLOOD UREA NITROGEN,[1],14 mg/dL
same,CARBON DIOXIDE,[1],31 mmol/L
same,CHOLESTEROL,[1],71.33 mg/dL
same,CREATINE PHOSPHOKINASE,[1],331 u/L
same,CREATININE,[1],0.35 mg/dL
same,GLUCOSE,[1],149.67 mg/dL
same,LACTATE DEHYDROGENASE,[1],119.33 u/L
same,LIPASE,[1],11.67 u/L
same,POTASSIUM,[1],6.3 MEQ/L
same,SODIUM,[1],145.23 MEQ/L
same,TOTAL BILIRUBIN,[1],0.17 mg/dL
same,TOTAL PROTEIN,[1],5.87 G/DL
same,URIC ACID,[1],0.97 mg/dL
same,ABSOLUTE BASOPHIL,[2],0 CELLS/uL
same,ABSOLUTE EOSINOPHIL,[2],28.33 CELLS/uL
same,ABSOLUTE LYMPHOCYTE,[2],6898 CELLS/uL
same,ABSOLUTE MONOCYTE,[2],45.67 CELLS/uL
same,ABSOLUTE SEGMENTED NEUTROPHIL,[2],428 CELLS/uL
same,BASOPHIL,[2],0%
same,EOSINOPHIL,[2],0.33%
same,ERYTHROCYTE COUNT,[2],5.27 x10E6/uL
same,HEMATOCRIT,[2],32.97%
same,HEMOGLOBIN,[2],12.8 G/DL
same,LEUKOCYTE COUNT,[2],7.4 x10E3/uL
same,LYMPHOCYTE,[2],93%
same,MEAN CORPUSCULAR HEMOGLOBIN,[2],24.37 pg
same,MEAN CORPUSCULAR HEMOGLOBIN CONCENTRATION,[2],38.87 G/DL
same,MONOCYTE,[2],0.67%
same,NEUTROPHIL,[2],6%
same,NUCLEATED RED BLOOD CELLS,[2],0 /100WBC
same,PLATELET COUNT,[2],1125.67 x10E3/uL
same,ALANINE AMINOTRANSFERASE,[2],47.33 u/L
same,ALBUMIN,[2],4.07 G/DL
same,ALKALINE PHOSPHATASE,[2],321 u/L
same,ASPARTATE AMINOTRANSFERASE,[2],79.33 u/L
same,BLOOD UREA NITROGEN,[2],12.67 mg/dL
same,CARBON DIOXIDE,[2],28.33 mmol/L
same,CHOLESTEROL,[2],67.33 mg/dL
same,CREATINE PHOSPHOKINASE,[2],458 u/L
same,CREATININE,[2],0.23 mg/dL
same,GLUCOSE,[2],154 mg/dL
same,LACTATE DEHYDROGENASE,[2],123 u/L
same,LIPASE,[2],9.67 u/L
same,POTASSIUM,[2],5.85 MEQ/L
same,SODIUM,[2],142.43 MEQ/L
same,TOTAL BILIRUBIN,[2],0.17 mg/dL
same,TOTAL PROTEIN,[2],5.77 G/DL
same,URIC ACID,[2],0.9 mg/dL
same,ABSOLUTE BASOPHIL,[3],0 CELLS/uL
same,ABSOLUTE EOSINOPHIL,[3],32 CELLS/uL
same,ABSOLUTE LYMPHOCYTE,[3],9269.33 CELLS/uL
same,ABSOLUTE MONOCYTE,[3],115 CELLS/uL
same,ABSOLUTE SEGMENTED NEUTROPHIL,[3],383.67 CELLS/uL
same,BASOPHIL,[3],0%
same,EOSINOPHIL,[3],0.33%
same,ERYTHROCYTE COUNT,[3],5.83 x10E6/uL
same,HEMATOCRIT,[3],35.13%
same,HEMOGLOBIN,[3],13.9 G/DL
same,LEUKOCYTE COUNT,[3],9.8 x10E3/uL
same,LYMPHOCYTE,[3],94.33%
same,MEAN CORPUSCULAR HEMOGLOBIN,[3],23.83 pg
same,MEAN CORPUSCULAR HEMOGLOBIN CONCENTRATION,[3],39.6 G/DL
same,MONOCYTE,[3],1.33%
same,NEUTROPHIL,[3],4%
same,NUCLEATED RED BLOOD CELLS,[3],0.33 /100WBC
same,PLATELET COUNT,[3],783 x10E3/uL
same,ALANINE AMINOTRANSFERASE,[3],46.67 u/L
same,ALBUMIN,[3],4.17 G/DL
same,ALKALINE PHOSPHATASE,[3],320.33 u/L
same,ASPARTATE AMINOTRANSFERASE,[3],74 u/L
same,BLOOD UREA NITROGEN,[3],15.67 mg/dL
same,CARBON DIOXIDE,[3],29.33 mmol/L
same,CHOLESTEROL,[3],57.67 mg/dL
same,CREATINE PHOSPHOKINASE,[3],253.33 u/L
same,CREATININE,[3],0.44 mg/dL
same,GLUCOSE,[3],155.67 mg/dL
same,LACTATE DEHYDROGENASE,[3],135.67 u/L
same,LIPASE,[3],12 u/L
same,POTASSIUM,[3],5.65 MEQ/L
same,SODIUM,[3],145.17 MEQ/L
same,TOTAL BILIRUBIN,[3],0.17 mg/dL
same,TOTAL PROTEIN,[3],5.83 G/DL
same,URIC ACID,[3],0.83 mg/dL
